Results on 18 compounds are retold here after ChEMBL document CHEMBL4619744, “Evaluation of nitrocatechol chalcone and pyrazoline derivatives as inhibitors of catechol-O-methyltransferase and monoamine oxidase” (Bioorg Med Chem Lett, 2020).

As usually defined, the IC50 is the concentration at which inhibition is half-maximal.

SMILES strings stand for the structures.

For assay [1], the target named is T1, Amine oxidase [flavin-containing] A (Homo sapiens, UniProt P21397).
T1 sequence (P21397 whole entry): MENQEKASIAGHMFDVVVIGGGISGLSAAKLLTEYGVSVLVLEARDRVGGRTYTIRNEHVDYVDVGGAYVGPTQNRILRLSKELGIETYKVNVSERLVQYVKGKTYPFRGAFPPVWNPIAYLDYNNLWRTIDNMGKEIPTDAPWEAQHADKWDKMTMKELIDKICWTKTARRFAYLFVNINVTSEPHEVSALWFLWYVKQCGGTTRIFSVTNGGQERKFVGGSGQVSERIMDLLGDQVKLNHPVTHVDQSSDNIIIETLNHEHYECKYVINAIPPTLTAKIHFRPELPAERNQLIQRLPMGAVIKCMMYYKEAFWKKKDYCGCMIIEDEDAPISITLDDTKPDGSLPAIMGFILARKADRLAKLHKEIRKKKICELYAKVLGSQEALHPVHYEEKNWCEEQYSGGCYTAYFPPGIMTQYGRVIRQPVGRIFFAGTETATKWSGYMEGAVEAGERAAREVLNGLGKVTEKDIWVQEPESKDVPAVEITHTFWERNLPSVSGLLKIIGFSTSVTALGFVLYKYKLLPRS
The experiment in a line: Inhibition of recombinant human MAOA using kynuramine as substrate by fluorescence based assay.

Assay [2] deals with T2, Catechol O-methyltransferase (Rattus norvegicus, UniProt P22734).
T2 sequence (P22734 whole entry): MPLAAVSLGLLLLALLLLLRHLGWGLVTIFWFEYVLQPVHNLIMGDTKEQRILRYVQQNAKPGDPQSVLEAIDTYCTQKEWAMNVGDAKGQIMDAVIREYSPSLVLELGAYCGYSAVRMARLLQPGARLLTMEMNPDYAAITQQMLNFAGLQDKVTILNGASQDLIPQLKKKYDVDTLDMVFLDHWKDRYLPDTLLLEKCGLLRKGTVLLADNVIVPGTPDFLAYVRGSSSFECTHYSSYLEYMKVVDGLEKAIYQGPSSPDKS
The experiment in a line: Inhibition of rat liver COMT using esculetin as substrate by fluorescence based spectrophotometry.

Assay [3] deals with T3, Amine oxidase [flavin-containing] B (Homo sapiens, UniProt P27338).
T3 sequence (P27338 whole entry): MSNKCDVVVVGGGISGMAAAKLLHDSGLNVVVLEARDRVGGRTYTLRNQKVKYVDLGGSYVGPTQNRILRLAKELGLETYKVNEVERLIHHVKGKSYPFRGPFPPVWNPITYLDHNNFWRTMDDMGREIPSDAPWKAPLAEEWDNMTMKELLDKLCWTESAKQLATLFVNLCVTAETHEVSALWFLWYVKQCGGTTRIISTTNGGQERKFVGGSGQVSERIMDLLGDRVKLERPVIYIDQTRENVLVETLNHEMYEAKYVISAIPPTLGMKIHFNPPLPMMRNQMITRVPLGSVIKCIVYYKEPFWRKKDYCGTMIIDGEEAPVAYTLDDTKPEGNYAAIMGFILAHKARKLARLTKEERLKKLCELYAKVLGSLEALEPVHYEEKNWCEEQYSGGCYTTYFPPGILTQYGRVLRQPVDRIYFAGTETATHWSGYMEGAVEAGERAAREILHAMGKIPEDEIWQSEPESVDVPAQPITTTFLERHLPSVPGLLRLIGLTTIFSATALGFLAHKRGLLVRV
Kind of assay: Inhibition of recombinant human MAOB using kynuramine as substrate by fluorescence based assay.

The target of assay [4] is T4, Catechol O-methyltransferase (Rattus norvegicus) (UniProt P22734).
T4 sequence (whole entry): T2 sequence (P22734 whole entry)
Kind of assay: Potency index, ratio of IC50 of 1-(3,4-dihydroxy-5-nitro-phenyl)-3-(3-methoxyphenyl)prop-2-en-1-one to IC50 of compound for inhibition of rat liver COMT using esculetin as substrate by fluorescence based spectrophotometry.

Assay [5] addresses T5, Catechol O-methyltransferase (Homo sapiens, UniProt P21964).
T5 sequence (P21964 whole entry): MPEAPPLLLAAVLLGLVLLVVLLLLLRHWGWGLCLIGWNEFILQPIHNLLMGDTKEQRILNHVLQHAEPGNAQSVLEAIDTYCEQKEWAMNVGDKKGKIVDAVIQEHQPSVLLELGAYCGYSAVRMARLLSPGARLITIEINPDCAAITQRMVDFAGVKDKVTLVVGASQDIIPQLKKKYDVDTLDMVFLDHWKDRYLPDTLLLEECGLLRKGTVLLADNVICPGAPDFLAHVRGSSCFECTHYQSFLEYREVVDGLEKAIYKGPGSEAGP
Kind of assay: Inhibition of COMT (unknown origin).

Assay [6] has as its target T1, Amine oxidase [flavin-containing] A. Kind of assay: Inhibition of recombinant human MAOA expressed in insect cells measured after 20 mins by fluorescence spectrophotometry.
Assay [7] deals with T3, Amine oxidase [flavin-containing] B. Kind of assay: Inhibition of recombinant human MAOB expressed in insect cells measured after 20 mins by fluorescence spectrophotometry.

Regarding `CC(=O)N1N=C(c2cc(O)c(O)c([N+](=O)[O-])c2)CC1c1ccoc1` (centres undefined), the results for the IC50 in assay [1], in assay [2] and in assay [3] were 90.9 µM, 0.18 µM and 126 µM, respectively.
Consider `Cn1cc(/C=C/C(=O)c2cc(O)c(O)c([N+](=O)[O-])c2)cn1`, for which the IC50 in assay [1] was 51.5 µM; in assay [2], 0.29 µM; in assay [3], 66.2 µM.
For `CC(=O)N1N=C(c2cc(O)c(O)c([N+](=O)[O-])c2)CC1c1ccc(C#N)cc1` (centres undefined), the IC50 in assay [1] worked out at 76.6 µM; in assay [2] it was 0.048 µM; in assay [3], 83.2 µM. The Ratio IC50 in assay [4] was determined as 1.46.
Take `COc1cccc(/C=C/C(=O)c2cc(O)c(O)c([N+](=O)[O-])c2)c1`: the IC50 stood at 0.07 µM in assay [5] and 67.6 µM in assay [6].
With `N#Cc1cccc(/C=C/C(=O)c2cc(O)c(O)c([N+](=O)[O-])c2)c1`, the IC50 in assay [1] came to 58.9 µM; in assay [2], 0.24 µM; in assay [3] it was 60.6 µM.
In the same order, the values of `O=C(/C=C/c1cccc(O)c1)c1cc(O)c(O)c([N+](=O)[O-])c1` are 43.9 µM, 0.14 µM and 55.8 µM.
On the same counts, the results for `CC(=O)N1N=C(c2cc(O)c(O)c([N+](=O)[O-])c2)CC1c1cccc(O)c1` (centres undefined) are 87 µM, 0.075 µM and 85.2 µM.
Turning to `CC(=O)N1N=C(c2cc(O)c(O)c([N+](=O)[O-])c2)CC1c1nccs1` (centres undefined), the figures for the IC50 in assay [1], in assay [2] and in assay [3] were 84.6 µM, 0.16 µM and 68.2 µM, respectively.
On the same counts, the results for `O=C(/C=C/c1ccco1)c1cc(O)c(O)c([N+](=O)[O-])c1` are 60.5 µM, 0.23 µM and 68.2 µM.
For the compound `O=C(/C=C/c1cccc(Br)c1)c1cc(O)c(O)c([N+](=O)[O-])c1`, the IC50 was 0.29 µM in assay [5], 76.1 µM in assay [6] and 13.9 µM in assay [7].
As for `O=C(/C=C/c1ccoc1)c1cc(O)c(O)c([N+](=O)[O-])c1`, the values for the IC50 in assay [1], in assay [2] and in assay [3] were 52.9 µM, 0.29 µM and 71.4 µM, respectively.
On the same counts, the results for `O=C(/C=C/c1nccs1)c1cc(O)c(O)c([N+](=O)[O-])c1` are 69.6 µM, 0.24 µM and 59.2 µM.
Consider `CC(=O)N1N=C(c2cc(O)c(O)c([N+](=O)[O-])c2)CC1c1ccco1` (centres undefined), for which the results for the IC50 in assay [1], in assay [2] and in assay [3] were 98 µM, 0.18 µM and 77.4 µM, respectively.
Consider `O=C(/C=C/c1cccs1)c1cc(O)c(O)c([N+](=O)[O-])c1`, for which the figures for the IC50 in assay [1], in assay [2] and in assay [3] were 49.9 µM, 0.19 µM and 62.9 µM, respectively.
On the same counts, the results for `N#Cc1ccc(/C=C/C(=O)c2cc(O)c(O)c([N+](=O)[O-])c2)cc1` are 45.3 µM, 0.18 µM and 56.6 µM.
Regarding `O=C(/C=C/c1ccsc1)c1cc(O)c(O)c([N+](=O)[O-])c1`, the IC50 in assay [1] amounted to 41.4 µM; in assay [2] it was 0.23 µM; in assay [3] it was 42.1 µM.
In the same order, the values of `CC(=O)N1N=C(c2cc(O)c(O)c([N+](=O)[O-])c2)CC1c1cccs1` (centres undefined) are 86.3 µM, 0.21 µM and 69.2 µM.
In the same order, the values of `CC(=O)N1N=C(c2cc(O)c(O)c([N+](=O)[O-])c2)CC1c1cccc(C#N)c1` (centres undefined) are 70.6 µM, 0.079 µM and 55.4 µM.
